From patent US20240197682A1, “METHOD FOR TREATING NEUROLOGICAL DISEASES USING SUPRAMOLECULE POLYMER THERAPEUTICS” (The Regents of the University of California, priority 2022, published 2024) come the findings set out here.

Each structure is given as a SMILES string. Like-named read-outs stand apart in the source and are kept apart here.

Series [1] is described as follows: Parallel Artificial Membrane Permeability Assay (PAMPA). It is filed as in vitro ADME. The settings on record: for PAMPA: P_app: 200 uM test compound, 4 hr; for Papp at 4 hr, 200 uM: PAMPA, read-out: PAMPA: P_app. The method, then: 5 uL of 1% lecithin (VWR 0579) dissolved in n-dodecane (Sigma Aldrich D221104) was applied to each well of a MultiScreen IP PAMPA filter plate (Millipore MAIPSWU10) and allowed to equilibrate for 5 minutes. 300 uL of PBS was added to the acceptor plate and 150 uL of 200 uM test compound dissolved in PBS and 30% ethanol was added to the donor wells before incubating the donor plate in the acceptor plate for 4 hr at 500 rpm. 100 uL was sampled from the donor and acceptor wells and the concentrations were measured by liquid chromatography-mass spectrometry (SCIEX 4500) or UV-VIS plate reader (BMG).
On the technique in general: The PAMPA barrier holds no transporters, so it reflects passive diffusion.

Series [2] deals with T1, YFP-tagged full length 0N4R-Tau P301S aggregates seeded by 416-AD11A lysate (T24 cells) (Homo sapiens, UniProt P10636, P618S).
T1 construct: C-terminally YFP-tagged full length 0N4R-Tau carrying a P301S mutation; expressed in transfected cells
The series is described as follows: Tau-AD high throughput screening (counter screen) in T24 cells. The series is classed as cell-based. The settings on record: T24 cells transfected with 416-AD11A lysate. The method, then:
A fragment of the Middle Tempral Gyrus (MTG) from Alzheimer's Disease (AD) patient 2217 was resuspended in 9 volumes of PBS (ml/g of brain) and homogenized 3×12 seconds using a probe homogenizer (Thomas Scientific) with disposable Omni Tip plastic homogenizing probes (Thomas Scinetific Cat No 3409Y77) to generate a 10% brain homogenate (10% AD11-BH). The 10% AD11-BH was clarified of insoluble debris by centrifugation at 800×g for 5 minutes. The resulting supernatant was collected and the protein concentration of this clarified BH (AD11-CBH) was determined by bicinchoninic acid assay (BCA) (Thermo Fisher Cat No. 23227). HEK293 cells stably expressing a C-terminally Clover-tagged truncated 4R-Tau^243-382 transgene containing the P301L and V337M mutations and a C-terminally Ruby-tagged truncated 3R-Tau^243-382 transgene containing the L266V and V337M mutations (128/139 cells) were transfected with the AD11-CBH using lipofectamine 2000 (LF2K) (Thermo Fisher Cat No. 11668500). Briefly, 0.32 μl of LF2K were diluted in 5 μl Opti-MEM (Thermo Scientific Cat No 31985070) per well of a 384-well plate and incubated for 5 min at room temperature (RT). This mixture was added to 0.32 μg of AD11-CBH diluted in 5 μl of PBS per well of a 384-well plate and vortex briefly. The transfection mixture was incubated at room temperature for 90 min. The transfection complexes were subsequently added to a single well of a 384-well plate containing 3500 128/139 cells. After 3 days the cells were harvested, counted and plated at a density of 1 cell/well in a 96-well plate. A clonal cell line containing Clover and Ruby positive Tau aggregates was selected and termed 416-AD11A cells. Following the expansion of these 416-AD11A cells, a cell lysate was prepared by freeze/thaw. The cells from a confluent T175 flask were harvested in 1 ml of PBS containing 1× protease inhibitor cocktail by scraping. The cell suspension was subjected to 4 cycles of freezing in liquid nitrogen for 5 minutes followed by thawing at 37° C. for 5 minutes. The resulting cell lysate was centrifuged at 2000 RPM for 10 minutes to remove the cell debris and the protein concentration of the resulting 416-AD11A lysate was determined by BCA assay and aliquots frozen for future use.
HEK293 cells stably expressing C-terminally YFP-tagged full length 0N4R-Tau carrying a P301S mutation (T24 cells) are plated at a density of 4000 cells per well of a 384-well black walled, clear bottom plate (Greiner Cat No 5678-1091Q) in 60 μl of complete DMEM (DMEM (Corning Cat No 10-013-CV), 10% FBS (VWR Cat No 97068-085, 0.5% Penicilin/streptomycin (Gibco Cat No 15140-122)) containing 0.1 μg/ml Hoechst Dye (Thermo Scientific Cat No H3570). Transfection complexes are prepared by diluting 0.15 μg of 416-AD11A lysate or HEK lysate in 5 μl of PBS per well to be transfected and 0.15 μl of Lipofectamine 2000 (LF2K) (ThermoFisher Cat No 11668500) in 5 μl of Opti-MEM per well to be transfected in separate tubes. The pre-diluted 416-AD11A or HEK lysates and LF2K are subsequently mixed and allowed to incubate for 90 minutes at RT. A 10 μl aliquot of the 416-AD11A or HEK transfection complexes is added to the appropriate wells of the 384-well plate containing the T24 cells using the Bravo liquid handling platform (Agilent). Wells A23-P24 of the 384-well plate are transfected with HEK lysate to act as a reference point for spontaneous aggregation of 0N4R^P301S and for transfection related toxicity. The dilution of test compounds is performed using the Bravo liquid handling platform (Agilent). The control is DMSO in the absence of any test compound. Briefly, 1 μl of each test compound (5 mM stock) in the 384-well test plate was transferred to a 384-well plate (Greiner Cat No 781280) containing 61.5 μl of complete DMEM to generate a working stock of compounds at 80 μM. […]

T1 sequence (P10636 1-383 isoform P10636-6 P243S): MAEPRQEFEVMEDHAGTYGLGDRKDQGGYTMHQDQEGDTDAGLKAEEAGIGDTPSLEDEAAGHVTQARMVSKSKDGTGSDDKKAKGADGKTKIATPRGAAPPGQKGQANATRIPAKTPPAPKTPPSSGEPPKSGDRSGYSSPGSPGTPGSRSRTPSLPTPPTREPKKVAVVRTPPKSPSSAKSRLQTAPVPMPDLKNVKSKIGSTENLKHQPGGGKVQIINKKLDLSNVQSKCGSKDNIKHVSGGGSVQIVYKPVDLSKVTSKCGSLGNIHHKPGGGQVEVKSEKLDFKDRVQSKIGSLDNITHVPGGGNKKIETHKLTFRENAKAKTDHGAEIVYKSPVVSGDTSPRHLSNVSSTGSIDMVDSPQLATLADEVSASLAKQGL

In the case of `CC(=O)Nc1ncc2c(-c3ccccc3)nn(Cc3cncc(F)c3)c2n1` [Compound 267], in series [1] (pH 7.4), the “PAMPA: P_app” value is 5.98 ×10e−6 cm/sec. Further, the “AD Tau Aggregates (% control)” value in series [2] came out at 91 % control.
The Papp is the rate of passage across a membrane or cell layer, normalised by area and donor concentration. Consider `CNC(=O)c1ncc2c(-c3cc4ccccc4cn3)nn(Cc3ccccc3)c2n1` [Compound 256, 1-benzyl-3-(isoquinolin-3-yl)-N-methyl-1H-pyrazolo[3,4-d]pyrimidine-6-carboxamide], for which the apparent permeability (Papp) at 4 hr, 200 uM in series [1] (pH 5.0, 200 uM test compound) was over 50 ×10⁻⁶ cm/s. In addition, the “PAMPA: P_app” value in series [1] (pH 7.4) is over 50 ×10e−6 cm/sec. Moreover, the “AD Tau Aggregates (% control)” value in series [2] turned out to be 100 % control.
For `Cc1ccnn1-c1nc(-n2cc3ccn(C(F)(F)F)c3nc2=O)c(-c2ccc(F)cc2)o1` [Compound 240], in series [1] (pH 7.4), the “PAMPA: P_app” value is 2.41 ×10e−6 cm/sec. For the same molecule, in series [2], the “AD Tau Aggregates (% control)” value came out at 95 % control.
`O=C(Cn1cc(-c2ccoc2)c(=O)c2ccc(N3CCCC3)cc21)Nc1ccccc1C(F)(F)F` [Compound 149, 2-[3-(furan-3-yl)-4-oxo-7-(pyrrolidin-1-yl)-1,4-dihydroquinolin-1-yl]-N-[2-(trifluoromethyl)phenyl]acetamide]: the Papp at 4 hr, 200 uM in series [1] (pH 5.0, 200 uM test compound) turned out to be 16.9 ×10⁻⁶ cm/s; in series [1] (pH 7.4, 200 uM test compound), 11.2 ×10⁻⁶ cm/s. Also, the “AD Tau Aggregates (% control)” value in series [2] was determined as 100 % control.
In the case of `CC(=O)Nc1ncc2c(-c3ccccc3)nn(Cc3ccncc3)c2n1` [Compound 279], the “PAMPA: P_app” value in series [1] (pH 5.0) is 44.7 ×10e−6 cm/sec; in series [1] (pH 7.4) it was over 50 ×10e−6 cm/sec. Moreover, the “AD Tau Aggregates (% control)” value in series [2] is given as 92 % control.
In the same order, the values of `CNC(=O)c1ncc2c(-c3ccccc3Cl)nn(-c3ccc(F)cc3)c2n1` [Compound 244] are over 50 ×10e−6 cm/sec, 45 ×10e−6 cm/sec and 100 % control.
In the same order, the values of `CNC(=O)c1ncc2c(-c3ccccc3)nn(-c3ccc(F)cc3)c2n1` [Compound 246] are over 50 ×10e−6 cm/sec, over 50 ×10e−6 cm/sec and 120 % control.
In the same order, the values of `CCC(=O)Nc1ncc2c(-c3ccccc3)nn(Cc3ccc(OC)cc3)c2n1` [Compound 269] are 19.1 ×10e−6 cm/sec, 26.7 ×10e−6 cm/sec and 100 % control.
In the case of `CNC(=O)c1ncc2c(-c3cc4c(cnn4C)cc3F)nn(Cc3ccccc3)c2n1` [Compound 253], in series [2], the “AD Tau Aggregates (% control)” value was found to be 96 % control.
On the same count and under the same terms, next, `CC(=O)Nc1ncc2c(-c3ccccc3)nn(C(C)c3ccccc3)c2n1` (stereo not drawn) [Compound 265]: 110 % control.
Still for that read-out and setting: under `CC(=O)Nc1ncc2c(-c3ccccc3C#N)nn(Cc3ccccc3)c2n1` [Compound 268] stands 105 % control.
In the case of `COC(=O)Nc1ncc2c(-c3ccccc3)nn(-c3ccccc3)c2n1` [Compound 274], the results for the “PAMPA: P_app” value in series [1] (pH 5.0) and in series [1] (pH 7.4) were 4.6 ×10e−6 cm/sec and 6.3 ×10e−6 cm/sec, respectively. Moreover, in series [2], the “AD Tau Aggregates (% control)” value was 94 % control.
On to `CNc1nc(=O)n(-c2nc(-c3ccc(Cl)cc3)oc2-c2ccc(Cl)c(F)c2)cc1F.Cl` [Compound 126, 1-(5-(4-chloro-3-fluorophenyl)-2-(4-chlorophenyl)oxazol-4-yl)-5-fluoro-4-(methylamino)pyrimidin-2(1H)-one hydrochloride], for which, in series [2], the “AD Tau Aggregates (% control)” value came out at 93 % control.
For `CNC(=O)c1ncc2c(-c3ccccc3)nn(Cc3ccccc3)c2n1` [Compound 248], the “PAMPA: P_app” value was 46.6 ×10e−6 cm/sec in series [1] (pH 5.0) and over 50 ×10e−6 cm/sec in series [1] (pH 7.4). Further, in series [2], the “AD Tau Aggregates (% control)” value was found to be 95 % control.
In the same order, the values of `CCc1ccccc1-c1nn(-c2ccc(F)cc2)c2nc(C(=O)NC)ncc12` [Compound 245] are over 50 ×10e−6 cm/sec, over 50 ×10e−6 cm/sec and 120 % control.
For `Cc1cc(-c2nc(-n3cc4ccn(C5CC5)c4nc3=O)c(-c3ccc(F)c(F)c3)o2)ncc1F` [Compound 234], the “AD Tau Aggregates (% control)” value in series [2] is recorded as 85 % control.
Regarding `CC(=O)Cc1nccc2cc(-c3nc(-n4ccc5cccnc5c4=O)c(-c4ccc(C(F)(F)F)cc4)o3)ccc12` [Compound 176, 7-(2-(1-(2-oxopropyl)isoquinolin-6-yl)-5-(4-(trifluoromethyl)phenyl)oxazol-4-yl)-1,7-naphthyridin-8(7H)-one], in series [2], the “AD Tau Aggregates (% control)” value was found to be 96 % control.
Consider `CC(=O)Nc1ncc2c(-c3ccccc3C)nn(Cc3ccccc3)c2n1` [Compound 266], for which the “PAMPA: P_app” value in series [1] (pH 5.0) and in series [1] (pH 7.4) was over 50 ×10e−6 cm/sec in each case. In series [2], the “AD Tau Aggregates (% control)” value stood at 98 % control.
Turning to `CNC(=O)c1ncc2c(-c3ccc(F)cc3)nn(Cc3cccc(F)c3)c2n1` [Compound 260], in series [2], the “AD Tau Aggregates (% control)” value is 95 % control.
Regarding `Cc1ccn(-c2nc(-n3cc4ccn(C(F)(F)F)c4nc3=O)c(-c3ccc(F)cc3)o2)n1` [Compound 241], the “PAMPA: P_app” value in series [1] (pH 7.4) is 1.36 ×10e−6 cm/sec. For the same molecule, in series [2], the “AD Tau Aggregates (% control)” value is 98 % control.
With `CC(O)COc1ccc(-c2nc(-n3cc4ccoc4nc3=O)c(-c3ccc(F)cc3)o2)cc1` (stereo not drawn) [Compound 182, 3-[5-(4-fluorophenyl)-2-[4-(2-hydroxypropoxy)phenyl]-1,3-oxazol-4-yl]-2H,3H-furo[2,3-d]pyrimidin-2-one], in series [2], the “AD Tau Aggregates (% control)” value was found to be 93 % control.
On the same count and under the same terms, under `CNc1nc(=O)n(-c2nc(-c3cccc(C)c3)oc2-c2cc(Cl)cs2)cc1F` [Compound 135, 1-(5-(4-chlorothiophen-2-yl)-2-(m-tolyl)oxazol-4-yl)-5-fluoro-4-(methylamino)pyrimidin-2(1H)-one] stands 100 % control; under `CCNc1nc(=O)n(-c2nc(-c3ccc(Cl)cc3)oc2-c2ccc(Cl)c(F)c2)cc1F` [Compound 127, 1-(5-(4-chloro-3-fluorophenyl)-2-(4-chlorophenyl)oxazol-4-yl)-4-(ethylamino)-5-fluoropyrimidin-2(1H)-one], 105 % control; under `Cc1cc(-c2nc(-n3cc4ccn(C5CC5)c4nc3=O)c(-c3ccc(Cl)c(F)c3)o2)ccn1` [Compound 232, 3-[5-(4-chloro-3-fluorophenyl)-2-(2-methylpyridin-4-yl)-1,3-oxazol-4-yl]-7-cyclopropyl-2H,3H,7H-pyrrolo[2,3-d]pyrimidin-2-one], 91 % control.
`CNC(=O)c1ncc2c(-c3ccc(F)cc3)nn(CC3CCCCC3)c2n1` [Compound 258]: the “AD Tau Aggregates (% control)” value in series [2] is 110 % control.
